The source of these data is ChEMBL document CHEMBL4033668, “Inhibitors of cytochrome P450 (CYP) 1B1” (Eur J Med Chem, 2017).

Molecules are shown by their SMILES.

The target of test [1] is T1, Cytochrome P450 1A2 (Homo sapiens, UniProt P05177).
T1 sequence (P05177 whole entry): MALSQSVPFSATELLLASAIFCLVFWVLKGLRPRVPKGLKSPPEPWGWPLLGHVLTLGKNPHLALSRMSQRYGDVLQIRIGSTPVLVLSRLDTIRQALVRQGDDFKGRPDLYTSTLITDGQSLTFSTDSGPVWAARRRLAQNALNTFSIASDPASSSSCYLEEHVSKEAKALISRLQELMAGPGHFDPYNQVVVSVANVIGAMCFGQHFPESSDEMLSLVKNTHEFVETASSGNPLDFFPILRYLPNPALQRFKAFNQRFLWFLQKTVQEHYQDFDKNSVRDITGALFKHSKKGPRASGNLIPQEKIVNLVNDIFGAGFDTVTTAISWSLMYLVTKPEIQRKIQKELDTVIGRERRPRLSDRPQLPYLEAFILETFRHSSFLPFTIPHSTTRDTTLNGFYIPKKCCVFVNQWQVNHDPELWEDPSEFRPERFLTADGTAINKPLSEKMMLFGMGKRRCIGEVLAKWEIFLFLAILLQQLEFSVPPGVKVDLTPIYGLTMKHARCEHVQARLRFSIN
Nature of the test: Inhibition of recombinant human CYP1A2 expressed in Escherichia coli DH5alpha using ethoxyresorufin as substrate preincubated for 3 mins followed by NADPH addition measured after 10 mins by spectrofluorometric assay. Type of test: ADME.

In test [2] the target is T2, Cytochrome P450 1B1 (Homo sapiens, UniProt Q16678).
T2 sequence (Q16678 whole entry): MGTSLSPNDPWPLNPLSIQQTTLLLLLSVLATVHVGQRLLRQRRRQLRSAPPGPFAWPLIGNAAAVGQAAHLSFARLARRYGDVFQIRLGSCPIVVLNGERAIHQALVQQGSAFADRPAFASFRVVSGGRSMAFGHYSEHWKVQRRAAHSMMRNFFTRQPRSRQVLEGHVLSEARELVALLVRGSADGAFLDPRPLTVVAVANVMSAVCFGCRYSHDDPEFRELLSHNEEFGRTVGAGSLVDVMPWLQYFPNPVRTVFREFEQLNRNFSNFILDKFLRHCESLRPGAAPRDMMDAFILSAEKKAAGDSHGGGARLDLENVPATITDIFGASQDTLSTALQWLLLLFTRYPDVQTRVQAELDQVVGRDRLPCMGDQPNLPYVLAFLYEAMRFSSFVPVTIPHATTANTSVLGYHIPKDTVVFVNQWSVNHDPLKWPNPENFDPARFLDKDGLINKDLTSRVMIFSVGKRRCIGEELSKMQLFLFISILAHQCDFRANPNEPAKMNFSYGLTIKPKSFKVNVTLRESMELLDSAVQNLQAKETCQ
Kind of test: Inhibition of recombinant human CYP1B1 expressed in supersomes using ethoxyresorufin as substrate after 20 mins in presence of NADPH by fluorescence assay.

Test [3] has as its target T2, Cytochrome P450 1B1. Kind of test: Inhibition of human CYP1B1 expressed in Escherichia coli DH5alpha coexpressing human NADPH-P450 reductase using 4-estradiol as substrate in presence of NADP+ by HPLC analysis.
Test [4] deals with T2, Cytochrome P450 1B1. Kind of test: Inhibition of human CYP1B1 expressed in Escherichia coli DH5alpha coexpressing human NADPH-P450 reductase using 4-estradiol as substrate in presence of NADP+ by Michaelis-Menten plot analysis.
The target of test [5] is T3, Cytochrome P450 1A1 (Homo sapiens, UniProt P04798).
T3 sequence (P04798 whole entry): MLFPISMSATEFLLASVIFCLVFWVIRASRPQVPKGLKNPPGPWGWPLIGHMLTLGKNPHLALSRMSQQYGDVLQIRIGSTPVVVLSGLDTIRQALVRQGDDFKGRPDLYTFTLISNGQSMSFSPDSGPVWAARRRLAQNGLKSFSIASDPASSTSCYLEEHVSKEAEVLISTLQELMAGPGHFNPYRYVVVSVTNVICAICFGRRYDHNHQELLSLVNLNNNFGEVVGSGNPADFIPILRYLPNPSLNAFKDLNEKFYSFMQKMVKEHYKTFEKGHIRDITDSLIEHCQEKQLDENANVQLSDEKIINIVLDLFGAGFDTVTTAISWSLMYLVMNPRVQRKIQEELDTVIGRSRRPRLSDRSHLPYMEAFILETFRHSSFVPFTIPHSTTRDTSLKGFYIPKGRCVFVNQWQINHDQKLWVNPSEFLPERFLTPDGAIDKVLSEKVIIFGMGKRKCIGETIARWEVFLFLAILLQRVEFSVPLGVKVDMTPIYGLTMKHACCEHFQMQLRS
Nature of the test: Mixed type inhibition of human hepatic microsomes CYP1A1 expressed in supersomes coexpressing NADPH-cytochrome P450 reductase using 7-Ethoxyresorufin as substrate measured every 30 secs for 3 mins in presence of NADPH by spectrofluorometric analysis. Type of test: ADME.

Test [6] has as its target T2, Cytochrome P450 1B1. Nature of the test: Mixed type inhibition of human hepatic microsomes CYP1B1 expressed in supersomes coexpressing NADPH-cytochrome P450 reductase using 7-Ethoxyresorufin as substrate measured every 30 secs for 3 mins in presence of NADPH by spectrofluorometric analysis.
Test [7] in a line: Competitive inhibition of […] CYP1 expressed in supersomes coexpressing NADPH-CYP reductase using 7-Ethoxyresorufin as substrate measured every 5 mins for 30 mins in presence of NADPH by fluorescence assay. Type of test: ADME. For orientation: Liver microsomes are vesicles of endoplasmic reticulum, rich in cytochrome P450 enzymes.
Test [8] deals with T3, Cytochrome P450 1A1. Kind of test: Inhibition of CYP1A1 in TCDD-exposed human MCF-7 cells using ethoxyresorufin as substrate after 20 mins in presence of NADPH by spectrofluorimetric analysis. Type of test: ADME.
Test [9] can be described thus: Selectivity ratio of IC50 for CYP1A1 in TCDD-exposed human MCF-7 cells to IC50 for CYP1B1 in TCDD-exposed human MCF-7 cells.
Test [10] concerns the target T2, Cytochrome P450 1B1. Nature of the test: Inhibition of CYP1B1 in TCDD-exposed human MCF-7 cells using ethoxyresorufin as substrate after 20 mins in presence of NADPH by Lineweaver-Burk linear regression plot analysis.
In test [11] the target is T2, Cytochrome P450 1B1. Nature of the test: Inhibition of CYP1B1 in TCDD-exposed human MCF-7 cells using ethoxyresorufin as substrate after 20 mins in presence of NADPH by spectrofluorimetric analysis.
In test [12] the target is T2, Cytochrome P450 1B1. Nature of the test: Competitive inhibition of […] CYP1B1 expressed in supersomes coexpressing NADPH-CYP reductase using 7-Ethoxyresorufin as substrate measured every 5 mins for 30 mins in presence of NADPH by fluorescence assay.
Test [13] concerns the target T1, Cytochrome P450 1A2. Kind of test: Competitive inhibition of […] CYP1A2 expressed in supersomes coexpressing NADPH-CYP reductase using 7-Ethoxyresorufin as substrate measured every 5 mins for 30 mins in presence of NADPH by fluorescence assay. In kind it is ADME.
The target in test [14] is T3, Cytochrome P450 1A1. Kind of test: Competitive inhibition of […] CYP1A1 expressed in supersomes coexpressing NADPH-CYP reductase using 7-Ethoxyresorufin as substrate measured every 5 mins for 30 mins in presence of NADPH by fluorescence assay. Type of test: ADME. Conditions: read-out: Ki.
The target in test [15] is T1, Cytochrome P450 1A2. Nature of the test: Inhibition of […] CYP1A2 expressed in Escherichia coli DH5alpha coexpressing NADPH-P450 reductase using 7-ethoxyresorufin O-deethylation as substrate in presence of NADPH by UV absorbance analysis. Type of test: ADME.
For test [16], the target named is T2, Cytochrome P450 1B1. Nature of the test: Inhibition of […] CYP1B1 expressed in Escherichia coli DH5alpha coexpressing NADPH-P450 reductase using 7-ethoxyresorufin O-deethylation as substrate in presence of NADPH by UV absorbance analysis.
Test [17] addresses T3, Cytochrome P450 1A1. Kind of test: Inhibition of […] CYP1A1 expressed in Escherichia coli DH5alpha coexpressing NADPH-P450 reductase using 7-ethoxyresorufin O-deethylation as substrate in presence of NADPH by UV absorbance analysis. In kind it is ADME.

As a reminder, the IC50 is the midpoint of a concentration-inhibition curve. Turning to `COc1cc(/C=C/c2ccc(OC)cc2OC)cc(OC)c1`, the IC50 at Cytochrome P450 1A2 [1] came out at 3000 nM.
Broadly, the Ki is a dissociation constant, usually derived from enzyme kinetics or from competition with a known ligand. On to `C=C(C)C1CC=C(CO)CC1` (configuration not stated), for which the Ki at Cytochrome P450 1B1 [2] stood at 2000 nM.
For the compound `COc1ccc2cc3[n+](cc2c1OC)CCc1cc2c(cc1-3)OCO2` [BERBERINE], on Cytochrome P450 1B1 [3], the IC50 came out at 330 nM. In addition, the Ki at Cytochrome P450 1B1 [4] stood at 44 nM.
As for `COc1ccc2[nH]cc(CCNC(C)=O)c2c1` [MELATONIN], the results for the Ki at Cytochrome P450 1A1 [5] and at Cytochrome P450 1B1 [6] were 59000 nM and 14000 nM, respectively.
As to `CCCCCc1cc(O)c2c(c1)OC(C)(C)[C@@H]1CCC(C)=C[C@@H]21` [DRONABINOL], the Ki in test [7] was in the range of 2470 to 7540 nM.
Consider `Br.Cc1ccc(C(=O)Cn2c3c(sc2=N)CCCC3)cc1`, for which the IC50 was 1500 nM at Cytochrome P450 1A1 [8] and 20.6 nM on Cytochrome P450 1B1 [11]. Besides, the “Ratio IC50” value in test [9] stood at 73. The Ki on Cytochrome P450 1B1 [10] was 4.38 nM.
Regarding `CCCCCc1cc(O)c2c(c1)OC(C)(C)c1ccc(C)cc1-2` [CANNABINOL], the Ki on Cytochrome P450 1B1 [12] was found to be 148 nM; on Cytochrome P450 1A2 [13], 79 nM; on Cytochrome P450 1A1 [14] it was 541 nM.
For the compound `O=c1c2ccccc2nc2n1CCc1c-2[nH]c2ccc(O)cc12`, the half-maximal inhibitory concentration (IC50) at Cytochrome P450 1A2 [15] came out at 2570 nM; on Cytochrome P450 1B1 [16], 90 nM; on Cytochrome P450 1A1 [17] it was 2560 nM.
